US9169240B2, “Ketone linked benzothiazole inhibitors of endothelial lipase” (BRISTOL-MYERS SQUIBB COMPANY, priority 2012, dated 2015)

Target: Endothelial lipase (EL) (Homo sapiens (Human), UniProt Q9Y5X9)
Assay: Endothelial lipase (EL) activity assay with fluorescent substrate A10070 in DMPG vesicles
Format: biochemical
Protocol: Endothelial lipase activity was measured using a fluorescent substrate, A10070, (Invitrogen, CA) doped into an artificial vesicle containing DMPG (Avanti Polar Lipids) as the excipient. Vesicles were prepared by combining 285 μL of 1 mM DMPG in a 1:1 mixture of MeOH and CHCl3 with 15 μL of 1 mM A10070 in a 1:1 mixture of MeOH and CHCl3. The mixture was dried under nitrogen and resuspended in 150 μL of 50 mM HEPES pH 8.0 buffer containing 100 mM NaCl and 0.2 mM EDTA. The sample was allowed to sit at rt for 15 min and then was sonicated 3×4 mins on ice with a Branson Sonicator using duty cycle 1. This preparation provides vesicles with a mole fraction of 0.05 for the FRET substrate.
The enzymatic assay was measured using white, opaque 96-well half area plates. Each well contained 60 μL of assay buffer (50 mM HEPES pH 8.0, 50 mM NaCl and 1 mM CaCl2) and 2 ul of a DMSO solution containing compound of interest. Conditioned media obtained from HT-1080 cells, which were transformed by RAGE technology (Athersys) to overexpress endogenous EL, was added and the reaction was allowed to incubate for 20 min at 37° C. with gentle agitation. The reaction was started by the addition of 20 μL of a 1:4 dilution of vesicles. The final total reaction volume was 100 μL. The reaction rates were measured on a Gemini plate reader with an excitation wavelength of 488 nm and an emission of 530 nm. Readings were taken every 20 seconds for 10 min with agitation between each reading. The slope of the linear portion of the readout was used to calculate the rate of the reaction.

Chain of Endothelial lipase (EL) (Q9Y5X9 21-500): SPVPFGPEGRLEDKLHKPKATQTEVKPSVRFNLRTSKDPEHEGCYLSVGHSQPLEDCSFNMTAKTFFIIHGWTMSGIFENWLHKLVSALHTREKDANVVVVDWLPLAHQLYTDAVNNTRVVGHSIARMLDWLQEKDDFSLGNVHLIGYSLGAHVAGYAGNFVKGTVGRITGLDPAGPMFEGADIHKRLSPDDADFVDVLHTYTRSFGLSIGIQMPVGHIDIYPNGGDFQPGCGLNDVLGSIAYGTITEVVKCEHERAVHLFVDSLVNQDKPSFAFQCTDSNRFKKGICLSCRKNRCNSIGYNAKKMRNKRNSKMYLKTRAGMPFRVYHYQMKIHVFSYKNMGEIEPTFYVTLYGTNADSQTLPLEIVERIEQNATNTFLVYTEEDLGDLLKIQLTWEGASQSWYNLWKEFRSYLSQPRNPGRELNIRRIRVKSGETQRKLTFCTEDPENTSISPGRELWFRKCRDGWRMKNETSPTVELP

SMILES | IC50
O=C(c1nnc(NCCc2ccccc2)o1)c1nc2ccc(-c3ccc(F)cc3)cc2s1 [Example 59, (6-(4-fluorophenyl)benzo[d]thiazol-2-yl)(5-(phenethylamino)-1,3,4-oxadiazol-2-yl)methanone] | 49 nM
O=C(c1nnc(NCCc2ccc(F)cc2)o1)c1nc2ccc(-c3ccc(F)cc3)cc2s1 [Example 60, (5-((4-fluorophenethyl)amino)-1,3,4-oxadiazol-2-yl)(6-(4-fluorophenyl)benzo[d]thiazol-2-yl)methanone] | 56 nM
COC(=O)[C@H](COC(C)(C)C)Nc1nnc(C(=O)c2nc3ccc(-c4ccc(F)cc4)cc3s2)o1 [Example 61, (S)-methyl 3-(tert-butoxy)-2-((5-(6-(4-fluorophenyl)benzo[d]thiazole-2-carbonyl)-1,3,4-oxadiazol-2-yl)amino)propanoate] | 140 nM
COc1ccc(CCNc2nnc(C(=O)c3nc4ccc(-c5ccc(F)cc5)cc4s3)o2)cc1 [Example 62, (6-(4-fluorophenyl)benzo[d]thiazol-2-yl)(5-((4-methoxyphenethyl)amino)-1,3,4-oxadiazol-2-yl)methanone] | 240 nM
O=C(c1nnc(NCCc2ccccc2F)o1)c1nc2ccc(-c3ccc(F)cc3)cc2s1 [Example 63, (5-((2-fluorophenethyl)amino)-1,3,4-oxadiazol-2-yl)(6-(4-fluorophenyl)benzo[d]thiazol-2-yl)methanone] | 290 nM
O=C(c1nnc(NCCc2ccc(Cl)cc2)o1)c1nc2ccc(-c3ccc(F)cc3)cc2s1 [Example 64, (5-((4-chlorophenethyl)amino)-1,3,4-oxadiazol-2-yl)(6-(4-fluorophenyl)benzo[d]thiazol-2-yl)methanone] | 6.6 nM
C[C@H](Nc1nnc(C(=O)c2nc3ccc(-c4ccc(F)cc4)cc3s2)o1)c1ccc(Cl)cc1 [Example 65, (S)-(5-((1-(4-chlorophenyl)ethyl)amino)-1,3,4-oxadiazol-2-yl)(6-(4-fluorophenyl)benzo[d]thiazol-2-yl)methanone] | 420 nM
O=C(c1nnc(NC2CC2)o1)c1nc2ccc(-c3ccc(F)cc3)cc2s1 [Example 66, (5-(cyclopropylamino)-1,3,4-oxadiazol-2-yl)(6-(4-fluorophenyl)benzo[d]thiazol-2-yl)methanone] | 290 nM
CC(C)(C)OC(=O)CNc1nnc(C(=O)c2nc3ccc(-c4ccccc4)cc3s2)o1 [Example 67, tert-butyl 2-((5-(6-phenylbenzo[d]thiazole-2-carbonyl)-1,3,4-oxadiazol-2-yl)amino)acetate] | 130 nM
O=C(c1nnc(N[C@H](CCO)C(=O)O)o1)c1nc2ccc(-c3ccccc3)cc2s1 [Example 68, (R)-4-hydroxy-2-((5-(6-phenylbenzo[d]thiazole-2-carbonyl)-1,3,4-oxadiazol-2-yl)amino)butanoic acid] | 27 nM
COc1ccc(CNc2nnc(C(=O)c3nc4ccc(-c5ccccc5)cc4s3)o2)c(OC)c1 [Example 69] | 310 nM
CN1CCC(Nc2nnc(C(=O)c3nc4ccc(-c5ccccc5)cc4s3)o2)C1=O (stereo not shown) [Example 70, 1-methyl-3-((5-(6-phenylbenzo[d]thiazole-2-carbonyl)-1,3,4-oxadiazol-2-yl)amino)pyrrolidin-2-one] | 190 nM
CN1CCC(Nc2nnc(C(=O)c3nc4ccc(-c5ccccc5)cc4s3)o2)C1=O (stereo not shown) [Example 71, 1-methyl-3-((5-(6-phenylbenzo[d]thiazole-2-carbonyl)-1,3,4-oxadiazol-2-yl)amino)pyrrolidin-2-one] | 22 nM
NS(=O)(=O)CCNc1nnc(C(=O)c2nc3ccc(-c4ccccc4)cc3s2)o1 [Example 72, 2-((5-(6-phenylbenzo[d]thiazole-2-carbonyl)-1,3,4-oxadiazol-2-yl)amino)ethanesulfonamide] | 88 nM
O=C(c1nnc(NCCc2ccncc2)o1)c1nc2ccc(-c3ccccc3)cc2s1 [Example 73, (6-phenylbenzo[d]thiazol-2-yl)(5-((2-(pyridin-4-yl)ethyl)amino)-1,3,4-oxadiazol-2-yl)methanone] | 180 nM
CC(C)NC(=O)CNc1nnc(C(=O)c2nc3ccc(-c4ccccc4)cc3s2)o1 [Example 74, N-isopropyl-2-((5-(6-phenylbenzo [d]thiazole-2-carbonyl)-1,3,4-oxadiazol-2-yl)amino)acetamide] | 150 nM

SMILES | IC50
NC(=O)[C@@H](CCC(F)(F)F)Nc1nnc(C(=O)c2nc3ccc(-c4ccccc4)cc3s2)o1 [Example 75, (R)-5,5,5-trifluoro-2-((5-(6-phenylbenzo[d]thiazole-2-carbonyl)-1,3,4-oxadiazol-2-yl)amino) pentanamide] | 28 nM
O=C(c1nnc(NCCc2cccnc2)o1)c1nc2ccc(-c3ccccc3)cc2s1 [Example 76, (6-phenylbenzo[d]thiazol-2-yl)(5-((2-(pyridin-3-yl)ethyl)amino)-1,3,4-oxadiazol-2-yl)methanone] | 36 nM
O=C(c1nnc(N2CC[C@@H](c3ccccc3)C2)o1)c1nc2ccc(-c3ccccc3)cc2s1 [Example 79, (S)-(6-phenylbenzo[d]thiazol-2-yl)(5-(3-phenylpyrrolidin-1-yl)-1,3,4-oxadiazol-2-yl)methanone] | 310 nM
O=C(c1nnc(N2CC[C@H](c3ccccc3)C2)o1)c1nc2ccc(-c3ccccc3)cc2s1 [Example 80, (R)-(6-phenylbenzo[d]thiazol-2-yl)(5-(3-phenylpyrrolidin-1-yl)-1,3,4-oxadiazol-2-yl)methanone] | 450 nM
O=C(c1nnc(N2CC[C@H](OCc3ccccc3)C2)o1)c1nc2ccc(-c3ccccc3)cc2s1 [Example 81, (S)-(5-(3-(benzyloxy)pyrrolidin-1-yl)-1,3,4-oxadiazol-2-yl)(6-phenylbenzo[d]thiazol-2-yl)methanone] | 490 nM
O=C(c1nnc(N[C@H]2CCNC2=O)o1)c1nc2ccc(-c3ccc(OC(F)F)cc3)cc2s1 [Example 82, (S)-3-((5-(6-(4-(difluoromethoxy)phenyl)benzo[d]thiazole-2-carbonyl)-1,3,4-oxadiazol-2-yl)amino)pyrrolidin-2-one] | < 10 nM
NS(=O)(=O)c1ccc(-c2ccc3nc(C(=O)c4nnc(N[C@H]5CCNC5=O)o4)sc3c2)cc1 [Example 83, (S)-4-(2-(5-((2-oxopyrrolidin-3-yl)amino)-1,3,4-oxadiazole-2-carbonyl)benzo[d]thiazol-6-yl)benzenesulfonamide] | < 10 nM
O=C(c1nnc(N(CC(F)(F)F)[C@H]2CCNC2=O)o1)c1nc2ccc(-c3ccccc3)cc2s1 [Example 84, (S)-3-((5-(6-Phenylbenzo[d]thiazole-2-carbonyl)-1,3,4-oxadiazol-2-yl)(2,2,2-trifluoroethyl)amino)pyrrolidin-2-one] | < 10 nM
O=C(c1nnc(N(Cc2nnc(C3CC3)o2)[C@H]2CCNC2=O)o1)c1nc2ccc(-c3ccccc3)cc2s1 [Example 85, (S)-3-(((5-Cyclopropyl-1,3,4-oxadiazol-2-yl)methyl)(5-(6-phenylbenzo[d]thiazole-2-carbonyl)-1,3,4-oxadiazol-2-yl)amino)pyrrolidin-2-one] | 35 nM
CN(c1nnc(C(=O)c2nc3ccc(-c4ccccc4)cc3s2)o1)[C@H]1CCNC1=O [Example 86, (S)-3-(Methyl(5-(6-phenylbenzo[d]thiazole-2-carbonyl)-1,3,4-oxadiazol-2-yl)amino)pyrrolidin-2-one] | 101 nM
O=C(c1nnc(N(Cc2ccccc2)[C@H]2CCNC2=O)o1)c1nc2ccc(-c3ccccc3)cc2s1 [Example 87, (S)-3-(Benzyl(5-(6-phenylbenzo[d]thiazole-2-carbonyl)-1,3,4-oxadiazol-2-yl)amino)pyrrolidin-2-one] | 11 nM
O=C(c1nnc(N2CCN(c3ccc(C(F)(F)F)cc3)CC2)o1)c1nc2ccc(-c3ccccc3)cc2s1 [Example 88, (6-Phenylbenzo[d]thiazol-2-yl)(5-(4-(4-(trifluoromethyl)phenyl)piperazin-1-yl)-1,3,4-oxadiazol-2-yl)methanone] | 494 nM
Nc1nnc(C(=O)c2nc3ccc(-c4ccccc4)cc3s2)o1 [Example 89, (5-Amino-1,3,4-oxadiazol-2-yl)(6-phenylbenzo[d]thiazol-2-yl)methanone] | 29 nM
Cc1ccc(S(=O)(=O)Nc2nnc(C(=O)c3nc4ccc(-c5ccccc5)cc4s3)o2)cc1 [Example 90, 4-Methyl-N-(5-(6-phenylbenzo[d]thiazole-2-carbonyl)-1,3,4-oxadiazol-2-yl)benzenesulfonamide] | 340 nM
O=C(c1nnc(N[C@H]2CCN(CC(F)(F)F)C2=O)o1)c1nc2ccc(-c3ccccc3)cc2s1 [Example 91, (S)-3-((5-(6-Phenylbenzo[d]thiazole-2-carbonyl)-1,3,4-oxadiazol-2-yl)amino)-1-(2,2,2-trifluoroethyl)pyrrolidin-2-one] | 490 nM
